Patent US20170224667A1, “CANCER CHEMOPREVENTIVE AGENT” (KDL, Inc., priority 2014, published 2017)

How the values were obtained:
[1] = system: lung cancer in patients with idiopathic pulmonary fibrosis; assay: Lung cancer prevention in idiopathic pulmonary fibrosis patients allocated to pirfenidone or non-pirfenidone group; format: in vivo, human; details: for Effect on risk of incidence of lung cancer: logistic regression analysis; for Accumulated incidence of lung cancer: FIG. 1
From the text: Thus, the present inventors evaluated the cancer chemoprevention effect of pirfenidone in idiopathic pulmonary fibrosis patients who are said to have a high risk factor of carcinogenesis. […] This efficacy was not explained by its effectiveness on idiopathic pulmonary fibrosis, and is therefore a novel activity of pirfenidone.
87 in the pirfenidone group (83 idiopathic pulmonary fibrosis, four nonspecific interstitial pneumonia) and 232 in the non-pirfenidone group (213 idiopathic pulmonary fibrosis, 18 nonspecific interstitial pneumonia, and one patient of desquamative interstitial pneumonia). The patients in the pirfenidone group received pirfenidone for 12-75 months (an average of 27.9±14.7 months). As a result, the incidence of lung cancer in the pirfenidone group was 2, whereas in the non-pirfenidone group it was 49. The duration of observation period in the pirfenidone group was 65.5±42.6 months, whereas in the control group it was 57.1±37.5 months. In addition, among 73 deaths in the non-pirfenidone group, 11 (4.7%) patients died by lung cancer, whereas among 29 deaths in the pirifenidone group, one (1.2%) patient died by lung cancer.
The accumulated incidences of lung cancer in patients with idiopathic pulmonary fibrosis not treated with pirfenidone after 1, 5, and 10 years were 0.9%, 18.3%, and 26.8%, whereas in patients treated with pirfenidone after 1, 5, and 10 years the accumulated incidences of lung cancer were 0%, 2.5%, and 6.4%.
The risk factors of incidence of lung cancer were analyzed using logistic regression analysis. As for the variables, backgrounds such as age, sex, number of packs of cigarettes smoked per day by the number of years the person has smoked (pack year), current smoking, pulmonary emphysema, stage of idiopathic pulmonary fibrosis, lung functions (% vital capacity(VC), and forced expiratory volume in 1 second as percent of forced vital capacity; FEV 1%), respiratory function (carbon monoxide lung diffusing capacity; % DLCO), and arterial oxygen partial pressure (PAO2); home oxygen therapy (use/no use), pirfenidone (use/no use), prednisolone (use/no use), N-acetyl cysteine (use/no use) and so forth were used. […] Then, the factors affecting the incidence of lung cancer were analyzed using multivariate Cox proportion hazard mode. Four variables were found as affecting factors. […] This supports the lung cancer protective efficacy of pirfenidone.

[2] = system: fibrosis caused by pancreatic cancer; details: non-patent document 5; cited from earlier work
[3] = system: acute exacerbation in patients with idiopathic pulmonary fibrosis; details: pre-treatment; non-patent document 6; cited from earlier work
malignant glioma cells = details: non-patent document 4; cited from earlier work

Row | SMILES | Effect on risk of incidence of lung cancer ([1]; use/no use) | Death by cancer (lung cancer), % ([1]; 87 patients in pirfenidone group) [%] | Death by cancer (lung cancer), % ([1]; 87 patients in pirfenidone group, listed as pirifenidone) [%] | Incidence of lung cancer, % ([1]; 87 patients in pirfenidone group, observation 65.5 ± 42.6 months, treatment 12-75 months) [%] | Accumulated incidence of lung cancer ([1]; after 1 year) [%] | Accumulated incidence of lung cancer ([1]; after 5 years) [%] | Accumulated incidence of lung cancer ([1]; after 10 years) [%] | Effect on risk of lung cancer ([1]; multivariate Cox proportion hazard model, in words) | Hazard ratio, risk of lung cancer ([1]; multivariate Cox proportion hazard model, use/no use) | Effect on fibrosis caused by pancreatic cancer [2] | Acute exacerbation caused by lung cancer surgery [3] | Proliferation of malignant glioma cells (malignant glioma cells)
1 | CC(=O)N[C@@H](CS)C(=O)O [N-acetyl cysteine] | significantly decrease the risk factors of incidence of lung cancer | – | – | – | – | – | – | – | – | – | – | –
2 | Cc1ccc(=O)n(-c2ccccc2)c1 [Pirfenidone, 5-methyl-1-phenyl-2-(1H)-pyridone] | significantly decrease the risk factors of incidence of lung cancer | 1.1 | 1.2 | 2.3 | 0 | 2.5 | 6.4 | only factor decreasing the risk of lung cancer | 0.128 | inhibitory effects on fibrosis | acute exacerbation was inhibited | inhibited proliferation
